How the values were obtained:
[1] = xn = mol fraction of the nth substance listed; conditions: 101 kPa, Liquid
[2] = molar heat capacity at constant pressure; xn = mol fraction of the nth substance listed; conditions: 101 kPa, Liquid

CCCC[n+]1cccc(C)c1.F[B-](F)(F)F [1-butyl-3-methylpyridinium tetrafluoroborate] + O
Conditions	mass density, [1] [kg/m3]	molar heat capacity at constant pressure, [2] [J/K/mol]
293.15 K, x1 = 0.0015	–	76.7
293.15 K, x1 = 0.002	–	77.4
293.15 K, x1 = 0.0027	–	77.7
293.15 K, x1 = 0.0036	–	78.1
293.15 K, x1 = 0.0102	–	81
293.15 K, x1 = 0.0494	1066	–
293.15 K, x1 = 0.0938	–	112.7
293.15 K, x1 = 0.0973	1095.9	–
293.15 K, x1 = 0.1885	–	142.4
293.15 K, x1 = 0.2312	1139.7	–
293.15 K, x1 = 0.2704	–	167
293.15 K, x1 = 0.3559	1157.3	–
293.15 K, x1 = 0.362	–	193.8
293.15 K, x1 = 0.4035	1161.8	–
293.15 K, x1 = 0.4454	–	218.2
293.15 K, x1 = 0.5195	1167.9	–
293.15 K, x1 = 0.6432	–	275.2
293.15 K, x1 = 0.7087	1179.5	–
293.15 K, x1 = 0.7512	1181.2	–
293.15 K, x1 = 0.8094	–	325.2
293.15 K, x1 = 0.8791	–	346
293.15 K, x1 = 0.8838	1183.2	–
293.15 K, x1 = 0.9468	–	367.8
293.15 K, x1 = 1	1188.6	385.8
298.15 K, x1 = 0.0015	–	76.7
298.15 K, x1 = 0.002	–	77.4
298.15 K, x1 = 0.0027	–	77.7
298.15 K, x1 = 0.0036	–	78.2
298.15 K, x1 = 0.0102	–	81.1
298.15 K, x1 = 0.0494	1063.3	–
298.15 K, x1 = 0.0938	–	113.1
298.15 K, x1 = 0.0973	1092.7	–
298.15 K, x1 = 0.1885	–	143.1
298.15 K, x1 = 0.2312	1136	–
298.15 K, x1 = 0.2704	–	167.8
298.15 K, x1 = 0.3559	1153.6	–
298.15 K, x1 = 0.362	–	195
298.15 K, x1 = 0.4035	1158.2	–
298.15 K, x1 = 0.4454	–	219.3
298.15 K, x1 = 0.5195	1164.3	–
298.15 K, x1 = 0.6432	–	276.9
298.15 K, x1 = 0.7087	1176	–
298.15 K, x1 = 0.7512	1177.8	–
298.15 K, x1 = 0.8094	–	327.3
298.15 K, x1 = 0.8791	–	348.3
298.15 K, x1 = 0.8838	1179.8	–
298.15 K, x1 = 0.9468	–	370.4
298.15 K, x1 = 1	1185.2	387.7
303.15 K, x1 = 0.0015	–	76.8
303.15 K, x1 = 0.002	–	77.5
303.15 K, x1 = 0.0027	–	77.7
303.15 K, x1 = 0.0036	–	78.2
303.15 K, x1 = 0.0102	–	81.2
303.15 K, x1 = 0.0494	1060.4	–
303.15 K, x1 = 0.0938	–	113.4
303.15 K, x1 = 0.0973	1089.4	–
303.15 K, x1 = 0.1885	–	143.8
303.15 K, x1 = 0.2312	1132.3	–
303.15 K, x1 = 0.2704	–	168.6
303.15 K, x1 = 0.3559	1150	–
303.15 K, x1 = 0.362	–	196.1
303.15 K, x1 = 0.4035	1154.5	–
303.15 K, x1 = 0.4454	–	220.5
303.15 K, x1 = 0.5195	1160.8	–
303.15 K, x1 = 0.6432	–	278.6
303.15 K, x1 = 0.7087	1172.5	–
303.15 K, x1 = 0.7512	1174.3	–
303.15 K, x1 = 0.8094	–	329.5
303.15 K, x1 = 0.8791	–	350.8
303.15 K, x1 = 0.8838	1176.3	–
303.15 K, x1 = 0.9468	–	373
303.15 K, x1 = 1	1181.7	390.1
308.15 K, x1 = 0.0015	–	76.9
308.15 K, x1 = 0.002	–	77.6
308.15 K, x1 = 0.0027	–	77.8
308.15 K, x1 = 0.0036	–	78.3
308.15 K, x1 = 0.0102	–	81.3
308.15 K, x1 = 0.0494	1057.5	–
308.15 K, x1 = 0.0938	–	113.8
308.15 K, x1 = 0.0973	1086	–
308.15 K, x1 = 0.1885	–	144.5
308.15 K, x1 = 0.2312	1128.7	–
308.15 K, x1 = 0.2704	–	169.5
308.15 K, x1 = 0.3559	1146.4	–
308.15 K, x1 = 0.362	–	197.3
308.15 K, x1 = 0.4035	1150.9	–
308.15 K, x1 = 0.4454	–	221.7
308.15 K, x1 = 0.5195	1157.2	–
308.15 K, x1 = 0.6432	–	280.3
308.15 K, x1 = 0.7087	1169.1	–
308.15 K, x1 = 0.7512	1170.8	–
308.15 K, x1 = 0.8094	–	331.7
308.15 K, x1 = 0.8791	–	353.3
308.15 K, x1 = 0.8838	1172.9	–
308.15 K, x1 = 0.9468	–	375.7
308.15 K, x1 = 1	1178.3	392.8
313.15 K, x1 = 0.0015	–	77
313.15 K, x1 = 0.002	–	77.6
313.15 K, x1 = 0.0027	–	77.9
313.15 K, x1 = 0.0036	–	78.4
313.15 K, x1 = 0.0102	–	81.5
313.15 K, x1 = 0.0494	1054.5	–
313.15 K, x1 = 0.0938	–	114.2
313.15 K, x1 = 0.0973	1082.5	–
313.15 K, x1 = 0.1885	–	145.2
313.15 K, x1 = 0.2312	1125	–
313.15 K, x1 = 0.2704	–	170.4
313.15 K, x1 = 0.3559	1142.7	–
313.15 K, x1 = 0.362	–	198.4
313.15 K, x1 = 0.4035	1147.3	–
313.15 K, x1 = 0.4454	–	222.8
313.15 K, x1 = 0.5195	1153.7	–
313.15 K, x1 = 0.6432	–	282.1
313.15 K, x1 = 0.7087	1165.6	–
313.15 K, x1 = 0.7512	1167.4	–
313.15 K, x1 = 0.8094	–	334
313.15 K, x1 = 0.8791	–	355.8
313.15 K, x1 = 0.8838	1169.5	–
313.15 K, x1 = 0.9468	–	378.4
313.15 K, x1 = 1	1174.9	395.9
318.15 K, x1 = 0.0015	–	77.1
318.15 K, x1 = 0.002	–	77.7
318.15 K, x1 = 0.0027	–	78
318.15 K, x1 = 0.0036	–	78.4
318.15 K, x1 = 0.0102	–	81.7
318.15 K, x1 = 0.0494	1051.3	–
318.15 K, x1 = 0.0938	–	114.7
318.15 K, x1 = 0.0973	1079	–
318.15 K, x1 = 0.1885	–	146
318.15 K, x1 = 0.2312	1121.2	–
318.15 K, x1 = 0.2704	–	171.4
318.15 K, x1 = 0.3559	1139.1	–
318.15 K, x1 = 0.362	–	199.5
318.15 K, x1 = 0.4035	1143.7	–
318.15 K, x1 = 0.4454	–	224
318.15 K, x1 = 0.5195	1150.2	–
318.15 K, x1 = 0.6432	–	283.8
318.15 K, x1 = 0.7087	1162.2	–
318.15 K, x1 = 0.7512	1163.9	–
318.15 K, x1 = 0.8094	–	336.3
318.15 K, x1 = 0.8791	–	358.5
318.15 K, x1 = 0.8838	1166.1	–
318.15 K, x1 = 0.9468	–	381.3
318.15 K, x1 = 1	1171.6	399.3

Reference: the NIST ThermoML archive (doi:10.1021/je7002836)
